Laboratory results reported in PubChem BioAssay AID1845195 (Molecular Pharmacology Branch, DTP, NCI, 2023).
Values joined by “and” are separate entries in the source; they are usually repeats but may differ in a detail not shown here. Equal entries are not always repeated.

Test system: 156681-154-R-J1 tumor spheroid viability
Experiment: Anticancer human tumor 156681-154-R-J1 patient-derived melanoma cell line growth inhibition
Details: spheroids with HUVEC and MSC; for viability, T/C: stronger effect = lower value
How it was run: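 Complex spheroids of malignant cells with endothelial cells and mesenchymal stem cells; agents alone or combined, from near clinical Cmax (or 10 microM if unknown) down in half-log steps, 0.25% DMSO final.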

[1] = curve of first compound, second compound 1 µM
[2] = curve of first compound, second compound 3.16 µM
[3] = curve of first compound, second compound 10 µM
[4] = curve of first compound, second compound 31.6 µM
[5] = curve of first compound, second compound 100 µM
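Also: spheroids exposed to compounds for 7 days before readout.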
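For viability, T/C in this document: percent of vehicle control viability where 100% = DMSO-treated spheroids.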

Q: `Cn1ncnc1[C@H]1c2n[nH]c(=O)c3cc(F)cc(c23)N[C@@H]1c1ccc(F)cc1` + Cn1nnc2c(C(N)=O)ncn2c1=O was tested. Which IC50 [1] did it give?
A: 971 nM

Q: What about the IC50 [2] of the same molecule?
A: 591 nM

Q: And the IC50 [3]?
A: 270 nM

Q: What about the IC50 [4] of the same molecule?
A: < 9.49 nM

Q: And the IC50 [5]?
A: < 9.49 nM

Q: And the viability, T/C (second compound 1 µM, first compound 0.00949 µM)?
A: 78.4%

Q: And the viability, T/C (second compound 1 µM, first compound 0.03 µM)?
A: 83.7%

Q: And the viability, T/C (second compound 1 µM, first compound 0.0949 µM)?
A: 75%

Q: What about the viability, T/C (second compound 1 µM, first compound 0.3 µM) of the same molecule?
A: 72.7%

Q: What about the viability, T/C (second compound 1 µM, first compound 0.949 µM) of the same molecule?
A: 50.5%

Q: And the viability, T/C (second compound 1 µM, first compound 3 µM)?
A: 16.6%

Q: What about the viability, T/C (second compound 3.16 µM, first compound 0.00949 µM) of the same molecule?
A: 69%

Q: What about the viability, T/C (second compound 3.16 µM, first compound 0.03 µM) of the same molecule?
A: 74.4%

Q: And the viability, T/C (second compound 3.16 µM, first compound 0.0949 µM)?
A: 71%

Q: What about the viability, T/C (second compound 3.16 µM, first compound 0.3 µM) of the same molecule?
A: 64.1%

Q: And the viability, T/C (second compound 3.16 µM, first compound 0.949 µM)?
A: 40%

Q: And the viability, T/C (second compound 3.16 µM, first compound 3 µM)?
A: 15.2%

Q: What about the viability, T/C (second compound 10 µM, first compound 0.00949 µM) of the same molecule?
A: 81.1%

Q: What about the viability, T/C (second compound 10 µM, first compound 0.03 µM) of the same molecule?
A: 88.4%

Q: And the viability, T/C (second compound 10 µM, first compound 0.0949 µM)?
A: 54.6%

Q: And the viability, T/C (second compound 10 µM, first compound 0.3 µM)?
A: 50%

Q: What about the viability, T/C (second compound 10 µM, first compound 0.949 µM) of the same molecule?
A: 33.7%

Q: What about the viability, T/C (second compound 10 µM, first compound 3 µM) of the same molecule?
A: 13.6%

Q: And the viability, T/C (second compound 31.6 µM, first compound 0.00949 µM)?
A: 44.4%

Q: What about the viability, T/C (second compound 31.6 µM, first compound 0.03 µM) of the same molecule?
A: 35.4%

Q: What about the viability, T/C (second compound 31.6 µM, first compound 0.0949 µM) of the same molecule?
A: 34.9%

Q: And the viability, T/C (second compound 31.6 µM, first compound 0.3 µM)?
A: 29.6%

Q: And the viability, T/C (second compound 31.6 µM, first compound 0.949 µM)?
A: 17%

Q: And the viability, T/C (second compound 31.6 µM, first compound 3 µM)?
A: 18%

Q: And the viability, T/C (second compound 100 µM, first compound 0.00949 µM)?
A: 16.3%

Q: And the viability, T/C (second compound 100 µM, first compound 0.03 µM)?
A: 14.4%

Q: And the viability, T/C (second compound 100 µM, first compound 0.0949 µM)?
A: 12.2%

Q: What about the viability, T/C (second compound 100 µM, first compound 0.3 µM) of the same molecule?
A: 11.3%

Q: And the viability, T/C (second compound 100 µM, first compound 0.949 µM)?
A: 14%

Q: What about the viability, T/C (second compound 100 µM, first compound 3 µM) of the same molecule?
A: 14.4%

Q: Which results are given for `[2H]c1nc(C)nc([2H])c1-c1cc(NC[C@@H](C)c2cccc3c(C(=O)NC)ccnc23)ncn1`?
A: viability, T/C (compound 0.0316 µM): 84.5% and 81.3% and 110%; viability, T/C (compound 0.1 µM): 98.4% and 80% and 94.7%; viability, T/C (compound 0.316 µM): 91.8% and 92.6% and 92.1%; viability, T/C (compound 1 µM): 86.1% and 87.3% and 89.5%; viability, T/C (compound 3.16 µM): 91.8% and 77.7% and 88.6%; viability, T/C (compound 10 µM): 86.8% and 70% and 99.2%; IC50 (curve of compound): > 10000 nM

Q: For `Cn1nnc2c(C(N)=O)ncn2c1=O`, which viability, T/C (compound 1 µM) is on record?
A: 90.8% [middle of 10 runs]

Q: And the viability, T/C (compound 31.6 µM)?
A: 57.1% [middle of 10 runs]

Q: What about the IC50 (compound alone, run of 10/17/2019) of the same molecule?
A: 81000 nM and > 100000 nM and 72600 nM

Q: What does the source list for `CC1COCCN1c1cc(-c2ccnn2C)c2ccnc(-c3ccn[nH]3)c2n1` (configuration not stated)?
A: viability, T/C (compound 0.0316 µM): 83.8% and 68.1% and 84.5%; viability, T/C (compound 0.1 µM): 77.6% and 66% and 75.6%; viability, T/C (compound 0.316 µM): 37.2% and 34.3% and 47.2%; viability, T/C (compound 1 µM): 30.1% and 21.7% and 29.9%; viability, T/C (compound 3.16 µM): 31.1% and 24.6% and 29.9%; viability, T/C (compound 10 µM): 25.2% and 20.8% and 22.6%; IC50 (curve of compound): 220 nM and 179 nM and 286 nM

Q: `CC1COCCN1c1cc(-c2ccnn2C)c2ccnc(-c3ccn[nH]3)c2n1` (configuration not stated) + Cn1nnc2c(C(N)=O)ncn2c1=O was tested. Which IC50 [1] did it give?
A: 90.7 nM

Q: And the IC50 [2]?
A: 89.8 nM

Q: And the IC50 [3]?
A: 44.3 nM

Q: And the IC50 [4]?
A: < 31.6 nM

Q: And the IC50 [5]?
A: < 31.6 nM

Q: What about the viability, T/C (second compound 1 µM, first compound 0.0316 µM) of the same molecule?
A: 66.7%

Q: What about the viability, T/C (second compound 1 µM, first compound 0.1 µM) of the same molecule?
A: 48.5%

Q: And the viability, T/C (second compound 1 µM, first compound 0.316 µM)?
A: 32.1%

Q: And the viability, T/C (second compound 1 µM, first compound 1 µM)?
A: 24.1%

Q: And the viability, T/C (second compound 1 µM, first compound 3.16 µM)?
A: 22.5%

Q: And the viability, T/C (second compound 1 µM, first compound 10 µM)?
A: 20.2%

Q: And the viability, T/C (second compound 3.16 µM, first compound 0.0316 µM)?
A: 73.5%

Q: What about the viability, T/C (second compound 3.16 µM, first compound 0.1 µM) of the same molecule?
A: 47.7%

Q: And the viability, T/C (second compound 3.16 µM, first compound 0.316 µM)?
A: 26.1%

Q: What about the viability, T/C (second compound 3.16 µM, first compound 1 µM) of the same molecule?
A: 21.3%

Q: And the viability, T/C (second compound 3.16 µM, first compound 3.16 µM)?
A: 20.2%

Q: And the viability, T/C (second compound 3.16 µM, first compound 10 µM)?
A: 18%

Q: What about the viability, T/C (second compound 10 µM, first compound 0.0316 µM) of the same molecule?
A: 54.4%

Q: And the viability, T/C (second compound 10 µM, first compound 0.1 µM)?
A: 39.3%

Q: What about the viability, T/C (second compound 10 µM, first compound 0.316 µM) of the same molecule?
A: 23.2%

Q: What about the viability, T/C (second compound 10 µM, first compound 1 µM) of the same molecule?
A: 19.2%

Q: What about the viability, T/C (second compound 10 µM, first compound 3.16 µM) of the same molecule?
A: 21.9%

Q: And the viability, T/C (second compound 10 µM, first compound 10 µM)?
A: 15.6%

Q: What about the viability, T/C (second compound 31.6 µM, first compound 0.0316 µM) of the same molecule?
A: 38%

Q: What about the viability, T/C (second compound 31.6 µM, first compound 0.1 µM) of the same molecule?
A: 31.4%

Q: What about the viability, T/C (second compound 31.6 µM, first compound 0.316 µM) of the same molecule?
A: 18.6%

Q: What about the viability, T/C (second compound 31.6 µM, first compound 1 µM) of the same molecule?
A: 20.2%

Q: What about the viability, T/C (second compound 31.6 µM, first compound 3.16 µM) of the same molecule?
A: 21.8%

Q: And the viability, T/C (second compound 31.6 µM, first compound 10 µM)?
A: 16.2%

Q: And the viability, T/C (second compound 100 µM, first compound 0.0316 µM)?
A: 23.6%

Q: And the viability, T/C (second compound 100 µM, first compound 0.1 µM)?
A: 17.1%

Q: What about the viability, T/C (second compound 100 µM, first compound 0.316 µM) of the same molecule?
A: 12.6%

Q: What about the viability, T/C (second compound 100 µM, first compound 1 µM) of the same molecule?
A: 15.3%

Q: And the viability, T/C (second compound 100 µM, first compound 3.16 µM)?
A: 16%

Q: And the viability, T/C (second compound 100 µM, first compound 10 µM)?
A: 17%
